Among the data in patent US20240317723A1, “SUBSTITUTED AMINO AZA-HETEROARYL COMPOUNDS AS INHIBITORS OF THE HAEMATOPOIETIC PROGENITOR KINASE 1 (HPK1)” (priority 2021, published 2024) are IC50 and Selectivity values, retold here.

For assay [1], the target named is T1, Recombinant (1-346) HPK1 (h) (Homo sapiens, UniProt Q92918).
T1 construct: Recombinant (1-346) HPK1 (h) is incubated with 8 mM MOPS pH 7.0
T1 sequence (Q92918 1-346): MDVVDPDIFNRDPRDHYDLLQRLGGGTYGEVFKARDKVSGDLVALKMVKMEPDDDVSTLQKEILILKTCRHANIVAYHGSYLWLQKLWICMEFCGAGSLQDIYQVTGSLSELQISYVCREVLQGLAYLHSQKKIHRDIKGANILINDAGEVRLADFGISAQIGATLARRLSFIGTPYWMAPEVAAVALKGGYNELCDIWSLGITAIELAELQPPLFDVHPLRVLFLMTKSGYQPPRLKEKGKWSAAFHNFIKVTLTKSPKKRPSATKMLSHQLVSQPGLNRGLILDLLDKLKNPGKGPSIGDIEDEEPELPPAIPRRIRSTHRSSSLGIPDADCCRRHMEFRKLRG
The experiment in a line: HPK1 Human STE Kinase Enzymatic Radiometric Assay. The format is biochemical. Conditions: [gamma-33P]-ATP, myelin basic protein substrate, read-out: HPK1 IC50 nM Range*. As for the experimental part: (a) HPK1 Human STE Kinase Enzymatic Radiometric Assay
A stock solution of 10 mM of test compound is prepared in DMSO. The compound plate was prepared by 3-fold and 9-point serial dilutions. Recombinant (1-346) HPK1 (h) is incubated with 8 mM MOPS pH 7.0, 0.2 mM EDTA, 0.33 mg/mL myelin basic protein, 10 mM MgAcetate and [gamma-33P]-ATP (specific activity and concentration as required). The reaction is initiated by the addition of the Mg/ATP mix. After incubation for 40 minutes at RT, the reaction is stopped by the addition of phosphoric acid to a concentration of 0.5%. 10 uL of the reaction is then spotted onto a P30 filtermat and washed four times for 4 minutes in 0.425% phosphoric acid and once in methanol prior to drying and scintillation counting. For more details of kinase assay protocols, see: Gao, Y. et. al.; Biochem J. 451 (2): 313-328, 2013.

The next assay addresses Lck (h) (Homo sapiens, UniProt P06239). The experiment in a line: Lck Human STE Kinase Enzymatic Radiometric Assay. The format is biochemical. The conditions noted are these: for IC50: radiometric, [gamma-33P]-ATP, Cdc2 peptide substrate, read-out: Lck IC50, nM Range*; for Selectivity: selectivity for inhibition of HPK1 vs Lck. As to the method:
(b) Lck Human STE Kinase Enzymatic Radiometric Assay
Lck (h) is incubated with 50 mM Tris pH 7.5, 0.1 mM EGTA, 0.1 mM Na3VO4, 250 uM KVEKIGEGTYGVVYK (Cdc2 peptide), 10 mM MgAcetate and [gamma-33P]-ATP (specific activity and concentration as required). The reaction is initiated by the addition of the Mg/ATP mix. After incubation for 40 minutes at room temperature, the reaction is stopped by the addition of phosphoric acid to a concentration of 0.5%. 10 uL of the reaction is then spotted onto a P30 filtermat and washed four times for 4 minutes in 0.425% phosphoric acid and once in methanol prior to drying and scintillation counting. For more details on the kinase assay procedures see: Gao, Y. et. al.; Biochem J., 451 (2): 313-328, 2013.
In some embodiments the presence of substituents on monocyclic Cy^2 rings or when Cy^2 is a bicyclic ring (unsubstituted or substituted) provides compounds with improved selectivity for inhibition of HPK1 vs Lck (see, for example, Table 3 and Table 4).

Lck (h), sequence (P06239 whole entry): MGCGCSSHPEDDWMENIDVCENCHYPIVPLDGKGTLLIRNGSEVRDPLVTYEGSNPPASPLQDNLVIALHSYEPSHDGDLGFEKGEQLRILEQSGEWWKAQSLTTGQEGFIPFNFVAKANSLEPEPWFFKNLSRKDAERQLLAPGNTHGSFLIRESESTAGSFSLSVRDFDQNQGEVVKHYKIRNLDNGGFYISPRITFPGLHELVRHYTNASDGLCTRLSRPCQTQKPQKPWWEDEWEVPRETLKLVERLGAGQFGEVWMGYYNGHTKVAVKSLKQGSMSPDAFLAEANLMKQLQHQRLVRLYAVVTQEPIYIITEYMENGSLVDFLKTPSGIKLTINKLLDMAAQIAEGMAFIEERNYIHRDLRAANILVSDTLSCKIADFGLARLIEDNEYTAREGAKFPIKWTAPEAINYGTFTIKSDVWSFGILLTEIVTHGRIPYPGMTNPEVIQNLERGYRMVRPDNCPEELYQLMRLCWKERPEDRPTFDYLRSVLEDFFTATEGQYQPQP

In the case of `CN(C)C1CCN(c2ccc(-c3cnc(N)c(-c4ccc5c(c4)CCNC5=O)n3)c(F)c2)C1` (stereo not shown) [Example I-20, 6-(3-amino-6-(4-(3-(dimethylamino)pyrrolidin-1-yl)-2-fluorophenyl)pyrazin-2-yl)-3,4-dihydroisoquinolin-1(2H)-one], the 50% inhibitory concentration (IC50) was 0.1 to 5 nM in assay [1] and 11 to 20 nM on Lck (h).
The corresponding values for `CC(C)[C@@H]1CN(c2ccc(-c3cnc(N)c(-c4ccc5c(c4)CCNC5=O)n3)cc2)CCO1` [Example I-7, (R)-6-(3-amino-6-(4-(2-isopropylmorpholino)phenyl)pyrazin-2-yl)-3,4-dihydroisoquinolin-1(2H)-one] are 0.1 to 5 nM and 11 to 20 nM.
With `CCN1CCN(c2ccc(-c3cnc(N)c(-c4ccc5c(c4)CCNC5=O)n3)cc2)CC1` [Example I-56, 6-(3-amino-6-(4-(4-ethylpiperazin-1-yl)phenyl)pyrazin-2-yl)-3,4-dihydroisoquinolin-1(2H)_-one], the IC50 in assay [1] is 0.1 to 5 nM.
`C[C@@H]1CCCN1c1ccc(-c2cnc(N)c(-c3ccc4c(c3)CCNC4=O)n2)cc1` [Example I-42, (R)-6-(3-amino-6-(4-(2-methylpyrrolidin-1-yl)phenyl)pyrazin-2-yl)-3,4-dihydroisoquinolin-1(2H)-one]: the values for the IC50 (in assay [1]; on Lck (h)) were 0.1 to 5 nM and 11 to 20 nM, respectively.
On the same counts, the results for `CN1CCN(c2ccc(-c3cnc(N)c(-c4ccc5c(c4)C(C)(C)NC5=O)n3)cc2)CC1` [Example I-2, 5-(3-amino-6-(4-(4-methylpiperazin-1-yl)phenyl)pyrazin-2-yl)-3,3-dimethylisoindolin-1-one] are 0.1 to 5 nM and 6 to 10 nM.
On the same counts, the results for `CC(C)C1CCCN(c2ccc(-c3cnc(N)c(-c4ccc5c(c4)CCNC5=O)n3)c(F)c2)C1` (stereo not shown) [Example I-25, 6-(3-amino-6-(2-fluoro-4-(3-isopropylpiperidin-1-yl)phenyl)pyrazin-2-yl)-3,4-dihydroisoquinolin-1(2H)-one] are 6 to 10 nM and 21 to 200 nM.
On the same counts, the results for `Nc1ncc(-c2ccc(N3C[C@@H]4C[C@H]3CN4CC(F)(F)F)cc2)nc1-c1ccc2c(c1)CCNC2=O` [Example I-34, 6-(3-amino-6-(4-((1S,4S)-5-(2,2,2-trifluoroethyl)-2,5-diazabicyclo[2.2.1]heptan-2-yl)phenyl)pyrazin-2-yl)-3,4-dihydroisoquinolin-1(2H)-1-one] are 0.1 to 5 nM and 11 to 20 nM.
Take `CN1C[C@H]2C[C@@]2(c2ccc(-c3cnc(N)c(-c4cc5c(cc4F)C(=O)NCC5)n3)cc2)C1` [Example I-45, 6-(3-amino-6-(4-((1R,5S)-3-methyl-3-azabicyclo[3.1.0]hexan-1-yl)phenyl)pyrazin-2-yl)-7-fluoro-3,4-dihydroisoquinolin-1(2H)-one]: the IC50 fell in the range of 0.1 to 5 nM in assay [1] and 11 to 20 nM on Lck (h).
As to `CN(C)Cc1cc(C2CCOCC2)ccc1-c1cnc(N)c(-c2cc3c(cc2F)C(=O)NCC3)n1` [II-1, 6-(3-amino-6-(2-((dimethylamino)methyl)-4-(tetrahydro-2H-pyran-4-yl)phenyl)pyrazin-2-yl)-7-fluoro-3,4-dihydroisoquinolin-1(2H)-one], in assay [1], the IC50 lay in the range of 6 to 10 nM.
Regarding `CC(C)[C@H]1CN(c2ccc(-c3cnc(N)c(-c4ccc5c(c4)CCNC5=O)n3)c(F)c2)CCN1C` [Example I-41, (S)-6-(3-amino-6-(2-fluoro-4-(3-isopropyl-4-methylpiperazin-1-yl)phenyl)pyrazin-2-yl)-3,4-dihydroisoquinolin-1(2H)-one], the IC50 in assay [1] lay within 0.1 to 5 nM; on Lck (h) it was 21 to 200 nM.
The corresponding values for `CC(C)N1C[C@@H]2C[C@]2(c2ccc(-c3cnc(N)c(-c4cc5c(cc4F)C(=O)NCC5)n3)cc2)C1` [Example I-48, 6-(3-amino-6-(4-((1S,5R)-3-isopropyl-3-azabicyclo[3.1.0]hexan-1-yl)phenyl)pyrazin-2-yl)-7-fluoro-3,4-dihydroisoquinolin-1(2H)-one] are 0.1 to 5 nM and 11 to 20 nM.
The corresponding values for `CC(C)[C@H]1CN(c2ccc(-c3cnc(N)c(-c4cc5c(cc4F)C(=O)NCC5)n3)cc2)CCO1` [Example I-28, (S)-6-(3-amino-6-(4-(2-isopropylmorpholino)phenyl)pyrazin-2-yl)-7-fluoro-3,4-dihydroisoquinolin-1(2H)-one] are 0.1 to 5 nM and 11 to 20 nM.
On to `CN1CCN(c2ccc(-c3cc(-c4ccc5c(c4)CCNC5=O)c(N)nn3)cc2)CC1` [Example I-49, 6-(3-amino-6-(4-(4-methylpiperazin-1-yl)phenyl)pyridazin-4-yl)-3,4-dihydroisoquinolin-1(2H)-one], for which the IC50 in assay [1] was in the range of 21 to 200 nM.
As for `Nc1ncc(-c2ccc(N3CCOCC3)cc2)nc1-c1ccc2c(c1)CCNC2=O` [Comparator 1, 6-(3-amino-6-(4-morpholinophenyl)pyrazin-2-yl)-3,4-dihydroisoquinolin-1(2H)-one, reference compound], the Selectivity at Lck (h) is listed as 31.
Still for that read-out and setting: for `Nc1ncc(-c2ccc(N3CCOCC3)c(F)c2F)nc1-c1ccc2c(c1)CCNC2=O` [Comparator 2, 6-(3-amino-6-(2,3-difluoro-4-morpholinophenyl)pyrazin-2-yl)-3,4-dihydroisoquinolin-1(2H)-one, reference compound] the value was 930.
For `Cc1cc2cc(-c3nc(-c4ccc(C5CCOCC5)c(CN(C)C)c4)cnc3N)cc(F)c2c(=O)[nH]1` [II-4, 6-(3-amino-6-(3-((dimethylamino)methyl)-4-(tetrahydro-2H-pyran-4-yl)phenyl)pyrazin-2-yl)-8-fluoro-3-methylisoquinolin-1(2H)-one], in assay [1], the IC50 fell in the range of 0.1 to 5 nM.
Still for that read-out and setting: for `C[C@@H]1CN(c2ccc(-c3cnc(N)c(-c4ccc5c(c4)CCNC5=O)n3)cc2)C[C@H](C)N1C` [Example I-55, 6-(3-amino-6-(4-((3R,5S)-3,4,5-trimethylpiperazin-1-yl)phenyl)pyrazin-2-yl)-3,4-dihydroisoquinolin-1(2H)-one] the value was 0.1 to 5 nM; for `Cc1nc2cc(-c3nc(-c4ccc(N5CCN(C)CC5)cc4)cnc3N)ccc2c(=O)[nH]1` [Example I-57, 7-(3-amino-6-(4-(4-methylpiperazin-1-yl)phenyl)pyrazin-2-yl)-2-methylquinazolin-4(3H)-one], 6 to 10 nM; for `C[C@@H]1CN(C)CCN1c1ccc(-c2cnc(N)c(-c3ccc4c(c3)CCNC4=O)n2)cc1` [Example I-54, (R)-6-(3-amino-6-(4-(2,4-dimethylpiperazin-1-yl)phenyl)pyrazin-2-yl)-3,4-dihydroisoquinolin-1(2H)-one], 0.1 to 5 nM.
`Cc1c[nH]c(=O)c2cc(F)c(-c3nc(-c4ccc(C5CCOCC5)c(CN(C)C)c4)cnc3N)cc12` [II-2, 6-(3-amino-6-(3-((dimethylamino)methyl)-4-(tetrahydro-2H-pyran-4-yl)phenyl)pyrazin-2-yl)-7-fluoro-4-methylisoquinolin-1(2H)-one]: the half-inhibitory concentration (IC50) in assay [1] lay within 0.1 to 5 nM.
The same measure, in the same setting: as for `Cc1cc2cc(-c3nc(-c4ccc(N5CCN(C)CC5)cc4)cnc3N)ccc2c(=O)[nH]1` [Example I-51, 6-(3-amino-6-(4-(4-methylpiperazin-1-yl)phenyl)pyrazin-2-yl)-3-methylisoquinolin-1(2H)-one], the figure is 0.1 to 5 nM; as for `Cc1[nH]c(=O)c2c(F)cc(-c3nc(-c4ccc(C5CCOCC5)c(CN(C)C)c4)cnc3N)cc2c1F` [II-5, 6-(3-amino-6-(3-((dimethylamino)methyl)-4-(tetrahydro-2H-pyran-4-yl)phenyl)pyrazin-2-yl)-4,8-difluoro-3-methylisoquinolin-1(2H)-one], 0.1 to 5 nM.
`Nc1ncc(-c2ccc(N3CCOCC3)cc2F)nc1-c1ccc2c(c1)CCNC2=O` [Comparator 4, 6-(3-amino-6-(2-fluoro-4-morpholinophenyl)pyrazin-2-yl)-3,4-dihydroisoquinolin-1(2H)-one, reference compound] had a Selectivity at Lck (h) of 405.
`CC(C)N1CCN(c2ccc(-c3cnc(N)c(-c4ccc5c(c4)CCNC5=O)n3)cc2)[C@H](C)C1` [Example I-53, (R)-6-(3-amino-6-(4-(4-isopropyl-2-methylpiperazin-1-yl)phenyl)pyrazin-2-yl)-3,4-dihydroisoquinolin-1(2H)-one]: in assay [1], the IC50 lay within 0.1 to 5 nM.

By IC50 is commonly meant the concentration that inhibits the measured activity by half.
